Measurements: patent US9346810B2, “Pyrrolopyrimidine compounds and uses thereof” (HUTCHISON MEDIPHARMA LIMITED, priority 2010, dated 2016)
pIC50: −log10 of the molar value. Read-outs that look alike come from different tables or passages of the source.

Assays:
Format in all cases: biochemical
[1] = target: Recombinant human JAK1 catalytic domain (Homo sapiens (Human), UniProt P23458); test: JAK1 kinase assay (Z'-LYTE, Tyr 6 Peptide)
Description: (§1) JAK1/2/3 kinase assay are performed in vitro using Kit-Tyr 6 Peptide (Invitrogen, Cat. No. PV4122). TYK2 kinase assay are performed in vitro using Z′-LYTE™ Kinase Assay Kit-Tyr 3 Peptide (Invitrogen, Cat. No. PV3192). […] All compounds are initially tested at 8 different concentrations (1 μM down to 0.0003 μM) using a 1:3 serial dilution scheme.

[2] = target: Recombinant human JAK2 catalytic domain (Homo sapiens (Human), UniProt O60674); test: JAK2 kinase assay (Z'-LYTE, Tyr 6 Peptide)
Description: as §1

[3] = target: Recombinant human JAK3 catalytic domain (Homo sapiens (Human), UniProt P52333); test: JAK3 kinase assay (Z'-LYTE, Tyr 6 Peptide)
Description: as §1

[4] = read-out: IC50 in JAK1 kinase assay
[5] = read-out: IC50 in JAK2 kinase assay
[6] = read-out: IC50 in JAK3 kinase assay

Recombinant human JAK2 catalytic domain, sequence (O60674 849-1124): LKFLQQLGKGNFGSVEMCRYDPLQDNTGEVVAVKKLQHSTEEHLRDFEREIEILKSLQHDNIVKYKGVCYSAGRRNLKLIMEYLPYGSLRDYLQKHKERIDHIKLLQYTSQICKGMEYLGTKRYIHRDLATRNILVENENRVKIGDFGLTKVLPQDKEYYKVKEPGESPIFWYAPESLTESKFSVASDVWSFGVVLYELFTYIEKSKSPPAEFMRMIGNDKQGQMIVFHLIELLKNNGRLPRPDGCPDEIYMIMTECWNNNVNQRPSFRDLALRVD
Recombinant human JAK1 catalytic domain, sequence (P23458 875-1153): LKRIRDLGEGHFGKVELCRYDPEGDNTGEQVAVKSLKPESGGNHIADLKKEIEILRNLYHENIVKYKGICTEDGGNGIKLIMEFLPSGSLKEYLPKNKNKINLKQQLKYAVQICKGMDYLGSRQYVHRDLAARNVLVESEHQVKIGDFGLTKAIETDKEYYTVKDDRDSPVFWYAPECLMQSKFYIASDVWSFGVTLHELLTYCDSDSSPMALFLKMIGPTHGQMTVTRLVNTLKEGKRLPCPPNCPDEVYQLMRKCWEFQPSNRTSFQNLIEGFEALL
Recombinant human JAK3 catalytic domain, sequence (P52333 822-1111): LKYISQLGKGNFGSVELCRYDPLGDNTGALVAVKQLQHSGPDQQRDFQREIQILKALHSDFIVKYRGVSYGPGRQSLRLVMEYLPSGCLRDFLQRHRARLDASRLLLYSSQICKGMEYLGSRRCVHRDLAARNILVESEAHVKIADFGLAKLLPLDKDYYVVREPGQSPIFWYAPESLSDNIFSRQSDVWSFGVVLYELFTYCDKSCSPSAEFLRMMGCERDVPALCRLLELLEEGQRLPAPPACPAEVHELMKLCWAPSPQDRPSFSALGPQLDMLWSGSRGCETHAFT

Structure (SMILES) | pIC50 [1, 4] | pIC50 [2, 5] | other results
CN(C(=O)Nc1cccc(C#N)c1)[C@@H]1CCN(c2ncnc3[nH]ccc23)C1 [Compound 16, (R)-1-(1-(7H-pyrrolo[2,3-d]pyrimidin-4-yl)pyrrolidin-3-yl)-3-(3-cyanophenyl)-1-methylurea] | 7.00 to 9.00 | 6.00 to 7.00 | –
CN(C(=O)NC1CCOCC1)[C@@H]1CCN(c2ncnc3[nH]ccc23)C1 [Compound 36] | 7.00 to 9.00 | – | –
CN(C(=O)N1CCCC1)[C@@H]1CCN(c2ncnc3[nH]ccc23)C1 [Compound 37] | 7.00 to 9.00 | – | –
COc1nc(N(C)[C@@H]2CCN(c3ncnc4[nH]ccc34)C2)ccc1C#N [Compound 42] | 7.00 to 9.00 | 7.00 to 9.00 | pIC50 [3, 6]: 7.00 to 9.00
CN(c1cccc(C#N)c1)[C@@H]1CCN(c2ncnc3[nH]ccc23)C1 [Compound 119, (R)-3-((1-(7H-pyrrolo[2,3-d]pyrimidin-4-yl)pyrrolidin-3-yl)(methyl)amino)benzonitrile] | 7.00 to 9.00 | – | –
CN(c1ccc(S(=O)(=O)C(F)(F)F)cc1)[C@@H]1CCN(c2ncnc3[nH]ccc23)C1 [Compound 122] | 7.00 to 9.00 | 7.00 to 9.00 | –
N#Cc1ccc(N(CC2CC2)[C@@H]2CCN(c3ncnc4[nH]ccc34)C2)nc1 [Compound 124] | 7.00 to 9.00 | 7.00 to 9.00 | –
CN(c1cc2cn[nH]c2cn1)[C@@H]1CCN(c2ncnc3[nH]ccc23)C1 [Compound 125, (R)—N-(1-(7H-pyrrolo[2,3-d]pyrimidin-4-yl)pyrrolidin-3-yl)-N-methyl-1H-pyrazolo[3,4-c]pyridin-5-amine] | 7.00 to 9.00 | 7.00 to 9.00 | –
C#CCN(c1cnc(C#N)cn1)[C@@H]1CCN(c2ncnc3[nH]ccc23)C1 [Compound 127] | 7.00 to 9.00 | – | –
C#CCN(c1ccc(C#N)cn1)[C@@H]1CCN(c2ncnc3[nH]ccc23)C1 [Compound 128] | 7.00 to 9.00 | 7.00 to 9.00 | –
CN(c1ccc(-c2ccncc2)cn1)[C@@H]1CCN(c2ncnc3[nH]ccc23)C1 [Compound 144, (R)—N-(1-(7H-pyrrolo[2,3-d]pyrimidin-4-yl)pyrrolidin-3-yl)-N-methyl-3,4′-bipyridin-6-amine] | 7.00 to 9.00 | – | –
CN(c1ccncn1)[C@@H]1CCN(c2ncnc3[nH]ccc23)C1 [Compound 154, (R)—N-(1-(7H-pyrrolo[2,3-d]pyrimidin-4-yl)pyrrolidin-3-yl)-N-methylpyrimidin-4-amine] | 7.00 to 9.00 | 6.00 to 7.00 | –
Cc1nc(N(C)[C@@H]2CCN(c3ncnc4[nH]ccc34)C2)ccc1C#N [Compound 155] | 7.00 to 9.00 | 7.00 to 9.00 | –
CN(c1ccc(-c2nn[nH]n2)cc1F)[C@@H]1CCN(c2ncnc3[nH]ccc23)C1 [Compound 161] | 7.00 to 9.00 | 7.00 to 9.00 | –
C#Cc1ccc(N(C)[C@@H]2CCN(c3ncnc4[nH]ccc34)C2)nc1 [Compound 162, (R)—N-(1-(7H-pyrrolo[2,3-d]pyrimidin-4-yl)pyrrolidin-3-yl)-5-ethynyl-N-methylpyridin-2-amine] | – | 7.00 to 9.00 | pIC50 [3, 6]: 7.00 to 9.00
CN(c1ccc2nc[nH]c2n1)[C@@H]1CCN(c2ncnc3[nH]ccc23)C1 [Compound 163, (R)—N-(1-(7H-pyrrolo[2,3-d]pyrimidin-4-yl)pyrrolidin-3-yl)-N-methyl-3H-imidazo[4,5-b]pyridin-5-amine] | – | 7.00 to 9.00 | pIC50 [3, 6]: 6.00 to 7.00
CN(c1ccc2[nH]c(=O)[nH]c2n1)[C@@H]1CCN(c2ncnc3[nH]ccc23)C1 [Compound 164, (R)-5-((1-(7H-pyrrolo[2,3-d]pyrimidin-4-yl)pyrrolidin-3-yl)(methyl)amino)-1H-Imidazo[4,5-b]pyridin-2(3H)-one] | – | 7.00 to 9.00 | pIC50 [3, 6]: 6.00 to 7.00
COC(=O)c1ccc(N(C)[C@@H]2CCN(c3ncnc4[nH]ccc34)C2)nc1 [Compound 168, (R)-methyl 6-((1-(7H-pyrrolo[2,3-d]pyrimidin-4-yl)pyrrolidin-3-yl)(methyl)amino)nicotinate] | – | 7.00 to 9.00 | pIC50 [3, 6]: 6.00 to 7.00
CN(c1ccc(C(=O)NC2CC2)cn1)[C@@H]1CCN(c2ncnc3[nH]ccc23)C1 [Compound 171, (R)-6-((1-(7H-pyrrolo[2,3-d]pyrimidin-4-yl)pyrrolidin-3-yl)(methyl)amino)-N-cyclopropylnicotinamide] | – | 7.00 to 9.00 | pIC50 [3, 6]: 6.00 to 7.00
CN(c1ccc(C(=O)Nc2nccs2)cn1)[C@@H]1CCN(c2ncnc3[nH]ccc23)C1 [Compound 199] | – | – | pIC50 ([1]; read-out: JAK1 (enzyme, IC50)): 7.85; pIC50 ([3]; read-out: JAK3 (enzyme, IC50)): 6.28
CCS(=O)(=O)Nc1ccc(N(C)[C@@H]2CCN(c3ncnc4[nH]ccc34)C2)nc1 [Compound 210, (R)—N-(6-((1-(7H-pyrrolo[2,3-d]pyrimidin-4-yl)pyrrolidin-3-yl)(methyl)amino)pyridin-3-yl)ethanesulfonamide] | – | – | pIC50 [2]: 7.00 to 9.00; pIC50 [3]: 6.00 to 7.00
CN(c1ccc(S(=O)(=O)NC(C)(C)C)cn1)[C@@H]1CCN(c2ncnc3[nH]ccc23)C1 [Compound 238] | 7.00 to 9.00 | – | –
CN(c1ccc(S(=O)(=O)NC[C@H]2CCCO2)cn1)[C@@H]1CCN(c2ncnc3[nH]ccc23)C1 [Compound 241] | 7.00 to 9.00 | 7.00 to 9.00 | –
CN(c1ccc(S(=O)(=O)NC2COC2)cn1)[C@@H]1CCN(c2ncnc3[nH]ccc23)C1 [Compound 242] | 7.00 to 9.00 | 7.00 to 9.00 | –
CN(c1ccc(S(=O)(=O)NC2CCC[C@@H]2O)cn1)[C@@H]1CCN(c2ncnc3[nH]ccc23)C1 (some centres unmarked) [Compound 246] | 7.00 to 9.00 | – | –
CN(c1ccc(S(=O)(=O)N2CCCC2)cn1)[C@@H]1CCN(c2ncnc3[nH]ccc23)C1 [Compound 247] | 7.00 to 9.00 | – | –
CN(c1ccc(S(=O)(=O)N2CCNCC2)cn1)[C@@H]1CCN(c2ncnc3[nH]ccc23)C1 [Compound 251] | 7.00 to 9.00 | – | –
CN(c1ccc(S(=O)(=O)N2CCOCC2)cn1)[C@@H]1CCN(c2ncnc3[nH]ccc23)C1 [Compound 252] | 7.00 to 9.00 | 6.00 to 7.00 | –
CN(c1ccc(S(=O)(=O)NC2CCOCC2)cn1)[C@@H]1CCN(c2ncnc3[nH]ccc23)C1 [Compound 259] | 7.00 to 9.00 | 6.00 to 7.00 | –

Continued, in another order:

pIC50 [1, 4] | pIC50 [2, 5] | Structure (SMILES) | other results
7.00 to 9.00 | – | CN(C(=O)CCc1c(Cl)cccc1Cl)[C@@H]1CCN(c2ncnc3[nH]ccc23)C1 [Compound 21] | –
7.00 to 9.00 | 6.00 to 7.00 | CN(C(=O)Nc1ccc(C(F)(F)F)cc1)[C@@H]1CCN(c2ncnc3[nH]ccc23)C1 [Compound 30] | –
7.00 to 9.00 | – | CN(C(=O)Nc1ccc(Cl)cc1)[C@@H]1CCN(c2ncnc3[nH]ccc23)C1 [Compound 33] | –
7.00 to 9.00 | 6.00 to 7.00 | CN(c1ccc(Br)cn1)[C@@H]1CCN(c2ncnc3[nH]ccc23)C1 [Compound 68] | –
7.00 to 9.00 | – | CN(c1cc(F)c(C#N)c(F)c1)[C@@H]1CCN(c2ncnc3[nH]ccc23)C1 [Compound 106] | –
7.00 to 9.00 | 7.00 to 9.00 | CN(c1ccc(C(F)(F)F)cn1)[C@@H]1CCN(c2ncnc3[nH]ccc23)C1 [Compound 123] | –
– | 7.00 to 9.00 | CN(c1ccc(C(=O)N[C@H](CO)c2ccccc2)cn1)[C@@H]1CCN(c2ncnc3[nH]ccc23)C1 [Compound 174] | pIC50 [3, 6]: 6.00 to 7.00
– | 7.00 to 9.00 | C[C@H](NC(=O)c1ccc(N(C)[C@@H]2CCN(c3ncnc4[nH]ccc34)C2)c(F)c1)c1ccccc1 [Compound 182] | pIC50 [3, 6]: 7.00 to 9.00
– | 7.00 to 9.00 | CN(c1ccc(C(=O)NCc2ccccc2)cc1F)[C@@H]1CCN(c2ncnc3[nH]ccc23)C1 [Compound 187] | pIC50 [3, 6]: 6.00 to 7.00
– | 7.00 to 9.00 | CN(c1ccc(C(=O)NCCO)cn1)[C@@H]1CCN(c2ncnc3[nH]ccc23)C1 [Compound 190] | pIC50 [3, 6]: 6.00 to 7.00
7.00 to 9.00 | 7.00 to 9.00 | CN(c1ccc(C(=O)NC[C@H](O)c2ccccc2)cc1F)[C@@H]1CCN(c2ncnc3[nH]ccc23)C1 [Compound 202] | –
– | 7.00 to 9.00 | CN(c1c(F)cc(C(=O)N[C@@H](CO)c2ccccc2)cc1F)[C@@H]1CCN(c2ncnc3[nH]ccc23)C1 [Compound 208] | pIC50 [3, 6]: 7.00 to 9.00
– | 7.00 to 9.00 | COC[C@H](NC(=O)c1ccc(N(C)[C@@H]2CCN(c3ncnc4[nH]ccc34)C2)nc1)c1ccccc1 [Compound 209] | pIC50 [3, 6]: 7.00 to 9.00
7.00 to 9.00 | – | CN(c1ccc(NS(=O)(=O)c2cccs2)cn1)[C@@H]1CCN(c2ncnc3[nH]ccc23)C1 [Compound 214] | –
7.00 to 9.00 | – | CN(c1ccc(NS(=O)(=O)c2cccnc2)cn1)[C@@H]1CCN(c2ncnc3[nH]ccc23)C1 [Compound 215] | –
7.00 to 9.00 | 6.00 to 7.00 | CN(c1ccc(NS(C)(=O)=O)cn1)[C@@H]1CCN(c2ncnc3[nH]ccc23)C1 [Compound 217] | –
7.00 to 9.00 | 6.00 to 7.00 | CC(C)S(=O)(=O)Nc1ccc(N(C)[C@@H]2CCN(c3ncnc4[nH]ccc34)C2)nc1 [Compound 218] | –
7.00 to 9.00 | – | CN(c1ccc(NS(=O)(=O)Cc2ccccc2F)cn1)[C@@H]1CCN(c2ncnc3[nH]ccc23)C1 [Compound 219] | –
7.00 to 9.00 | – | CN(c1ccc(S(=O)(=O)N[C@@H]2c3ccccc3C[C@H]2O)cn1)[C@@H]1CCN(c2ncnc3[nH]ccc23)C1 [Compound 233] | –
7.00 to 9.00 | – | COCCNS(=O)(=O)c1ccc(N(C)[C@@H]2CCN(c3ncnc4[nH]ccc34)C2)nc1 [Compound 237] | –
7.00 to 9.00 | 6.00 to 7.00 | CNS(=O)(=O)c1ccc(N(C)[C@@H]2CCN(c3ncnc4[nH]ccc34)C2)nc1 [Compound 239] | –
7.00 to 9.00 | 6.00 to 7.00 | CN(c1ccc(S(=O)(=O)NCCO)cn1)[C@@H]1CCN(c2ncnc3[nH]ccc23)C1 [Compound 243] | –
7.00 to 9.00 | – | C[C@H](O)CNS(=O)(=O)c1ccc(N(C)[C@@H]2CCN(c3ncnc4[nH]ccc34)C2)nc1 [Compound 245] | –
7.00 to 9.00 | – | CN(c1ccc(S(=O)(=O)Nc2ccc(F)cc2)cn1)[C@@H]1CCN(c2ncnc3[nH]ccc23)C1 [Compound 253] | –
7.00 to 9.00 | – | CN(c1ccc(S(=O)(=O)NCc2ccc(F)cc2)cn1)[C@@H]1CCN(c2ncnc3[nH]ccc23)C1 [Compound 254] | –
